Primed or numbered codes have the meaning given here. Ends that are not written are not given here. Baa″ = fullerene (C60, Bucky) amino acid derivative of phenylalanine; Baa = not defined here
Key:
[1] = Antioxidant properties (IC50 determined by Csixty Inc. through an established method); assay type: biochemical
Description: A plot of inhibition as a function of concentration for peptide 27 is shown in FIG. 18 with a comparison of Baa and Trolox. […] It is unclear at the present time the reason for the slight reduction in activity between Baa and Baa-Glu-Glu-Glu-Glu-Gly-Gly-Gly-Ser-OH. Given that the peptide's aggregation in aqueous solution presumably results in the “Glu-Glu-Glu-Glu-Gly-Gly-Gly-Ser-OH” being exposed to the solution, the sequence could act as a buffer limiting electron transfer processes.

[2] = Peptide aggregation, particle size in solution by dynamic light scattering (DLS); assay type: physicochemical; conditions: PBS buffer
Experimental: (§1) Rink amide and Wang resin were obtained from Novabiochem, USA. Amino acids were purchased from Novabiochem and used as received. MALDI-TOF mass analysis was performed on a linear Protein-TOF Bruker instrument using sinipinic acid as the matrix. CD spectra were obtained on a Jasco J-700 dichrometer using 1 mm path-length quartz cells. Peptide solutions were 1.0 mg·mL^−1 solution in milliQ H2O or PBS buffer. In the case of peptides (21, 22 and 23), the pH was first adjusted to 10 to break up any aggregations and then adjusted by addition of 0.1 mM HCl until the desired pH was obtained. CD spectra were recorded in millidegrees and converted to residual molar ellipticity. TEM measurements were performed on a JEOL 2010 TEM at 200 kV. DLS Measurements were performed on the samples using an Brookhaven 90Plus submicron particle-size analyzer with HeNe laser (30 mW) that operates at […] wavelength.
With reference back to Table 1, in order to understand the intracellular transport of the FITC functionalized Baa-peptides, 25 and Baa-Lys(FITC)-NLS (26), their particle size in solution was determined by dynamic light scattering (DLS). Three series of solutions of 24, 25 and 26 in the range of 0.125-2.0 mg/mL was prepared by weighing method. PBS buffer prepared from HPLC grade water was used as solvent and was filtered through a […] cup filter (Millipore, Express).

[3] = tested on: MCF-7 breast cancer cells; experiment: Cellular proliferation, CCK-8 assay; assay type: cell-based; conditions: MCF-7, 48 h, concentration given with value
Experimental: (§2) Cellular proliferation studies. Cancer cells at 5×10^4 cells/well were plated in triplicate in standard flat-bottomed 96-well tissue culture plates in the presence of fullerene peptides in PBS buffer with a final volume of 100 μL. Unless otherwise indicated, cells were grown for 48 h at 37° C. in a CO2 incubator. Relative cell growth was determined by Cell Counting Kit-8 (CCK-8) cell proliferation assay as described by the manufacturer using an automated plate reader. Results were calculated in a blinded fashion and are the means of bi or triplicate determinations.
The effect of different Baa-peptide sequences on the cell viability of MCF-7 breast cancer cells was investigated to determine if the sequence has an effect rather than the presence of the C60. […] This is in agreement with the MTT cell viability test (see above). […] Clearly the sequence has a significant effect on the cell viability. However, it is worth noting that this may be due to either inherent differences in toxicity or differences in cellular uptake.

[4] = tested on: MDA-MB neoroblastoma cells; experiment: Cellular proliferation, CCK-8 assay; assay type: cell-based; conditions: 48 h
Experimental: as §2
A similar comparison has been made with MDA-MB neoroblastoma cells (FIG. 25) using H-Baa-Lys(FITC)-NLS (26), Baa-Penetratin (29) and Baa-Glu-Glu-Glu-Glu-Gly-Gly-Gly-Ser-OH (27). […] Given that both H-Baa-Lys(FITC)-NLS and Baa-Penetratin are cationic peptides which are readily taken up by the cells the cell inhibition cannot be a function of the uptake (i.e., intracellular concentration), but must also be dependent on the sequence.

[5] = Peptide secondary structure (CD) and appearance (TEM) as a function of pH; assay type: physicochemical; conditions: for Secondary structure with decreasing pH: CD spectra; for Appearance / diameter of non-fibrous particles: TEM; for diameter of non-fibrous particles: micelles at pH 4 (21), precipitate particles at pH 6 and lower (22)
Experimental: as §1
Control of peptide secondary structure by fullerene amino acids. In an effort to understand the effect of the C60 substituents on the secondary structure of a peptide we have investigated two sequences and the position within a particular sequence. The well characterized model heptad peptides Glu-Ile-Ala-Gln-Leu-Glu-Tyr-Glu-Ile-Ser-Gln-Leu-Glu-Gln-NH2 (2HP, 22 in Table 1) […]NH2 (3HP, 23 in Table 1) were chosen because they are known to form fibers at pH below 7 concomitant with β-sheet formation. To investigate the effects of the presence and C60 on the conformation of the peptide the model peptide 2HP was prepared in which either tyrosine was replaced by Baa (21 in Table 1) or Baa was added to the C-terminus (22 in Table 1). The C-terminus derivative 23 was also prepared for 3HP.

IMR32 cancer cell line = experiment: Cellular proliferation, CCK-8 assay; assay type: cell-based
Experimental: Cellular proliferation studies. Cancer cells at 5×10^4 cells/well were plated in triplicate in standard flat-bottomed 96-well tissue culture plates in the presence of fullerene peptides in PBS buffer with a final volume of 100 μL. Unless otherwise indicated, cells were grown for 48 h at 37° C. in a CO2 incubator. Relative cell growth was determined by Cell Counting Kit-8 (CCK-8) cell proliferation assay as described by the manufacturer using an automated plate reader. Results were calculated in a blinded fashion and are the means of bi or triplicate determinations. […] This difference is possibly because the relative propensity of Baa-2HP to precipitate under acidic conditions is less than that of Baa-3HP. Thus, the formation of aggregates of Baa-3HP would cause the inhibition of cell growth. However, we cannot discount alternative factors such as the sequence and its overall charge differences. For example, the strength of the aggregate may be greater for Baa-3HP than Baa-2HP due to the stronger self-assembly forces in 3HP.

HEK-293a cells = experiment: Cellular uptake by fluorescence microscopy; assay type: cell-based, human
Experimental: Cellular uptake. An immortalized human embryonic kidney epithelial cancer cell line was used in initial cellular uptake studies. HEK-293a cells were cultured in RMPI 1640 medium supplemented with 10% fetal bovine serum (FBS) in 5% CO2 and 37° C. humidified incubator. The medium was supplemented with penicillin (100 U·mL^−1), streptomycin (100 μg/mL), and glutamine (2 mM). For experiments and microscopy, cells were seeded at 1×10^4 cells per well on 6-well plates and grown for two days in RPMI supplemented with 10%. Cells were incubated with each peptide (40 μM) for 24 hrs at 37° C. After treatment, the cells were washed with RPMI supplemented with 10% FBS and phosphate buffered saline (PBS, 10 mM). Fluorescence was observed by a fluorescent microscope equipped with FITC and red filters.

Molecule: Cc1c(C)c2c(c(C)c1O)CCC(C)(C(=O)O)O2 (stereo not drawn) [Trolox, reference compound]
- IC50 [1]: 480 µM

Molecule: Baa-(Lys)8-OH [Peptide 24]
- aggregate size, major (or single) component ([2]; 0.125-2.0 mg/mL): ca. 200 nm
- aggregate distribution, single broad aggregate ([2]; 0.25-2.0 mg/mL): 50-350 nm

Molecule: Baa-Arg-Gln-Ile-Lys-Ile-Trp-Phe-Gln-Asn-Arg-Arg-Met-Lys-Trp-Lys-Lys-OH (Baa-RQIKIWFQNRRMKWKK-OH; reading uncertain) [Peptide 29]
- inhibition of cell growth [3]: significant inhibition effect at 31.4 μM
- inhibition of cell growth [4]: significant inhibition for solutions above 8-14 μM

Molecule: Baa-Glu-Glu-Glu-Glu-Gly-Gly-Gly-Ser-OH ({Baa″}-EEEEGGGS-OH) [Peptide 27]
- IC50 [1]: 89 µM
- antioxidant activity relative to Trolox ([1]; molar, from IC50): ca. five fold
- inhibition of cell growth [3]: no cellular inhibition up to 57 μM
- inhibition of cell growth [4]: significant inhibition for solutions above 8-14 μM

Molecule: Baa-Glu-Ile-Ala-Gln-Leu-Glu-Tyr-Glu-Ile-Ser-Gln-Leu-Glu-Gln-Glu-Ile-Gln-Ala-Leu-Glu-Ser-NH2 ({Baa″}-EIAQLEYEISQLEQEIQALES-NH2) [Peptide 23]
- Secondary structure with decreasing pH [5]: α-helix coiled
- Appearance [5]: fibers
- inhibition of cell growth [3]: no obvious inhibition
- inhibition of cell growth [4]: no obvious inhibition
- inhibition of cell growth (IMR32 cancer cell line; IMR32, 100 μg·mL^−1 (29.4 μM)): significant inhibition

Molecule: Baa-Glu-Ile-Ala-Gln-Leu-Glu-Tyr-Glu-Ile-Ser-Gln-Leu-Glu-Gln-NH2 ({Baa″}-EIAQLEYEISQLEQ-NH2) [Peptide 22]
- Secondary structure with decreasing pH [5]: random coil → α-helix
- Appearance [5]: aggregates
- diameter of non-fibrous particles [5]: approximately 20 nm
- inhibition of cell growth [3]: no obvious inhibition
- inhibition of cell growth [4]: no obvious inhibition
- inhibition of cell growth (IMR32 cancer cell line; IMR32, up to 37 μM): no inhibition

Molecule: Baa-Lys(FITC)-Glu-Glu-Glu-Glu-Gly-Gly-Gly-Ser-OH ({Baa″-Lys(FITC)}-EEEEGGGS-OH) [Peptide 28]
- uptake intensity in comparison with the cationic fullerene peptides (HEK-293a cells; same concentration, cell line not restated): greatly reduced

Molecule: Glu-Ile-Ala-Gln-Leu-Glu-Baa-Glu-Ile-Ser-Gln-Leu-Glu-Gln-NH2 [Peptide 21]
- Secondary structure with decreasing pH [5]: β-sheet
- Appearance [5]: fibers^a
- diameter of non-fibrous particles [5]: 8-10 nm

Molecule: Glu-Ile-Ala-Gln-Leu-Glu-Tyr-Glu-Ile-Ser-Gln-Leu-Glu-Gln-Gln-Glu-Ile-Gln-Ala-Leu-Glu-Ser-NH2 (EIAQLEYEISQLEQQEIQALES-NH2) [Peptide 3HP, parent model heptad peptide without Baa, reference compound]
- Secondary structure with decreasing pH [5]: random coil → α-helix
- Appearance [5]: fibers

Molecule: Glu-Ile-Ala-Gln-Leu-Glu-Tyr-Glu-Ile-Ser-Gln-Leu-Glu-Gln-NH2 (EIAQLEYEISQLEQ-NH2) [Peptide 2HP, parent model heptad peptide without Baa, reference compound]
- Secondary structure with decreasing pH [5]: random coil → α-helix → β-sheet
- Appearance [5]: fibers

Molecule: Lys(FITC)-(Lys)8-OH [reference compound]
- cellular uptake / localization by fluorescence (HEK-293a cells; 40 μM, 24 hrs, 37° C.): no uptake
- Active Cellular Uptake (HEK-293a cells; HEK-293a cells): No
